Assay [1] has as its system whole blood. Kind of assay: Luminol dependent chemiluminescence of whole blood. The class given is cell-based, human. The conditions noted are these: 0.5 h, read-out: Whole blood chemiluminescence (IC50 mg/ml). On the procedure: Anti-inflammatory activity has been assessed by measuring luminol dependent chemiluminescence generated by free radicals released from whole blood and from white blood cells. The assay has been performed using the following protocol: 10 μl of fresh human blood is mixed with 0.980 ml of Hanks saline solution containing 5×10^−5 M luminol and the test sample (at various concentrations). The chemiluminescent response is recorded continuously for 30 minutes at a temperature of 37° C. The results are expressed as IC50 (mg/ml), i.e. as the minimum sample concentration inhibiting chemiluminescence by 50% with respect to the control. To isolate white blood cells (WBC) from whole blood one proceeds in the following manner: 1 ml of fresh blood is layered onto a Hipaque gradient (p=1.119) and centrifuged at 250×g for 60 minutes at room temperature. Following centrifugation, the pellet containing the white blood cells is washed twice, using a large volume of cold Hanks saline solution. Finally, the washed WBCs are resuspended in 0.1 ml di HBSS containing foetal calf serum. 10^6 WBC are added to a chemiluminometer cuvette. 10 μl of PMA (final concentration equal to 10 nM) are added to induce the formation of free radicals. The chemiluminescent response is recorded continuously for 30 minutes at a temperature of 37° C. […]

Assay [2] relates to platelets. The assay can be described thus: ADP induced platelet aggregation-disaggregation in platelet rich plasma. The class given is cell-based, rabbit. The conditions noted are these: for Control disaggregation: 10 minutes after ADP; for Control disaggregation / Control aggregation / Latency period: Mean ± SD (n = 6); for Control aggregation: ADP 10 μM. As for the experimental part: Platelet enriched rabbit plasma has been used to assess the platelet anti-aggregating and disaggregating properties of Ajuga reptans Extracts compared with teupolioside and isoteupolioside. Platelet rich plasma has been obtained from rabbit venous blood by mixing it with a 3.8% sodium citrate solution (9:1 v/v). The solution has then been centrifuged at 460×g for 20 minutes. The supernatant has been collected and immediately used for the aggregation assays. Platelet aggregation has been recorded using a Chronolog “Ionised calcium platelet aggregometer” (Chrono-log Co., USA). All measurements have been performed at 37° C. with continuous stirring. One milliliter of the platelet suspension (in the presence or absence of the test substances) has been added to the cuvettes and incubated for five minutes to equilibrate the cells to 37° C. Then 10 μl of a solution of ADP (final concentration—10 μM) has been added and the luminous transmittance continuously recorded. The results are expressed as the DT/DTK ratio, where DTK and DT are the luminous transmittance values, in the absence and presence of extract respectively.
Platelet disaggregation (the disappearance of pre-formed aggregates) has been determined using the same luminous transmittance curve 10 minutes following the addition of ADP. The results are expressed as the DR/DRk ratio, where DRk and DR, are the luminous transmittance in the absence and presence of extract. The test substances, diluted in physiological solution (isotonic saline) (pH 7.4) are pre-incubated with the platelet rich plasma (1:10 v/v) for 5-40 minutes. The aggregation measurements have then been performed. Physiological solution carrier has been added to the control samples (1:10 v/v).

Assay [3] concerns tyrosinase. Kind of assay: Tyrosinase inhibition, conversion of L-DOPA to DOPAquinone. The class given is biochemical. Conditions: 100 μg/ml. The source says: The enzyme tyrosinase catalyses the reactions leading to melanin biosynthesis from tyrosine. […] Substances inhibiting tyrosinase activity produce a clearing/bleaching effect on the skin, since they block melanin synthesis. The method used to determine the inhibition of tyrosinase activity in the oxidation reaction of L-tyrosine to L-DOPA is that described in Kim et al. […] Biol. Pharm. […] The method applied for determination of the inhibition of tyrosinase activity in the conversion of L-DOPA to DOPAquinone is that described in Masamoto et al. (Mushroom tyrosinase inhibitory activity of esculetin isolated from seeds of Euphorbia lathyris L. Biosci. Biotechnol. Biochem., 67(3), 631-634, 2003).

Assay [4] has as its target T1, 5 alpha reductase, type I (Homo sapiens, UniProt P18405).
T1 construct: made in house; host or cells: genetically modified yeast
T1 sequence (P18405 1-259): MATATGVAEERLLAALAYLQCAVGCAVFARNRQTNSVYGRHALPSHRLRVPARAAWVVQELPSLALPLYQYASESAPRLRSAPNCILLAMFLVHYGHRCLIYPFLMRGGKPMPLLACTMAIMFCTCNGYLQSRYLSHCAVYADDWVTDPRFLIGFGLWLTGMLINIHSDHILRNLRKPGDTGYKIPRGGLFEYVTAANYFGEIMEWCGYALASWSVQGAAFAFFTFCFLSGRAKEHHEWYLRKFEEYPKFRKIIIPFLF
The assay can be described thus: Type I 5 alpha reductase inhibition ([14C] testosterone conversion). The class given is biochemical. As for the experimental part: Determination of the 5 alpha reductase inhibitory activities by Ajuga reptans extracts in comparison to Serenoa repens extracts. Said determination has been performed using enzymes (5 alpha reductase, type I and type II) produced by genetically modified yeast. Enzyme activities have been determined in the presence of Ajuga reptans extracts, teupolioside, isoteupolioside and Serenoa repens extracts.
Type I 5 alpha reductase activity has been assayed by incubating the enzyme in 0.1 M Tris-citrate buffer (pH 7.0), containing 5 μM [^14C] radio-labelled testosterone (Amersham, Sweden) and 5 mM NADPH (Sigma) in a final volume of 5 ml. The solution thus obtained has been incubated for 1 hour at 37° C.
In both assays, the steroids have been extracted using 5 ml of methylene chloride. The extracts have then been dried under a stream of nitrogen and the dried residues obtained have been dissolved in 20 μl of a chloroform-methanol mixture (2:1 v/v). […] For quantification of the results, the spots have been scraped from the TLC plate and extracted with 2 ml of ethyl acetate. The extracts obtained have been analysed, using scintillation fluid, with the aid of a Wallach β-counter. The enzyme activity has been calculated from the percentage conversion (C %) of the substrate into final product: C%=[counted product/(counted substrate+product)]×100.

Each structure is given as a SMILES string. Values after ≈ are worked out from the molar mass of the structure shown. Where two headings read alike, the source gives them in different places.

Consider `CC1OC(OC2C(O)C(COC(=O)C=Cc3ccc(O)c(O)c3)OC(OCCc3ccc(O)c(O)c3)C2O)C(OC2OC(CO)C(O)C(O)C2O)C(O)C1O` (centres unmarked) [Isoteupolioside, isoteupolioside], for which the IC50 is 1.3 mg/mL (≈ 1650 µM) in assay [1] (Homo sapiens) and 20.3 µM in assay [4]. The “Platelet disaggregation test, activity in words” value in assay [2] is “activity similar to teupolioside”. The “Test LDOPA-DOPAquinone inhibitory activity (%)” value in assay [3] is reported as 20%.

`C[C@@H]1O[C@@H](O[C@@H]2[C@@H](O)[C@H](OCCc3ccc(O)c(O)c3)O[C@H](CO)[C@H]2OC(=O)/C=C/c2ccc(O)c(O)c2)[C@H](O[C@@H]2O[C@H](CO)[C@H](O)[C@H](O)[C@H]2O)[C@H](O)[C@H]1O` [Teupolioside, teupolioside]: the IC50 in assay [1] (fresh human blood, luminol, 30 min, 37° C.) is 1.4 mg/mL (≈ 1780 µM); in assay [4] (first column of Table 9, pH 7.0, 5 μM testosterone, read-out: Type I 5 alpha reductase inhibition (IC50) (converted)), 21.6 µM. Also, the “Effect on platelet aggregation, in words” value in assay [2] is given as “modest inhibiting effect on platelet aggregation, only at 1 mg/ml concentration”. Moreover, the Control disaggregation was 105 ± 5 in assay [2] (0.001 mg/ml), 113 ± 10 in assay [2] (0.01 mg/ml), 124 ± 15 in assay [2] (0.1 mg/ml) and 100 ± 10 in assay [2] (1.0 mg/ml). Further, the Control aggregation is 121 ± 6 in assay [2] (0.001 mg/ml), 110 ± 10 in assay [2] (0.01 mg/ml), 114 ± 10 in assay [2] (0.1 mg/ml) and 68 ± 9 in assay [2] (1.0 mg/ml). The Latency period in assay [2] (0.001 mg/ml) turned out to be 101 ± 3; in assay [2] (0.01 mg/ml), 95 ± 5; in assay [2] (0.1 mg/ml), 94 ± 4; in assay [2] (1.0 mg/ml), 66 ± 10. Also, in assay [3], the “Test LDOPA-DOPAquinone inhibitory activity (%)” value worked out at 21%.

Values taken from US9623063B2, “Extracts from Ajuga reptans cell lines, their preparation and use” (I.R.B. ISTITUTO DI RICERCHE BIOTECNOLOGICHE S.r.l., priority 2005, dated 2017).
